# Source: patent US4369188A, “2-Thioxobenz[cd]indole-1(2H)-acetic acid derivatives” (Ayerst, McKenna & Harrison Inc., priority 1981, dated 1983)
# How the values were obtained:
# [1] = test system: dulcitol accumulation in the lens; test: galactosemic rats: decrease of dulcitol accumulation in the lens; type: in vivo, rat (Sprague-Dawley)
# Source text: The aldose reductase inhibiting property of a compound of formula I and its utilization in diminishing and alleviating diabetic complications also are demonstrable in experiments using galactosemic rats, see D. Dvornik et al., Science, 182, 1146 (1973). Such experiments are exemplified hereinbelow after the listing of the following general comments pertaining to these experiments:
# (a) Four or more groups of six male rats, 50-70 g, Sprague-Dawley strain, were used. The first group, the control group, was fed a mixture of laboratory chow (rodent laboratory chow, Purina) and glucose at 20% (w/w %) concentration. The untreated galactosemic group was fed a similar diet in which galactose is substituted for glucose. The other groups were fed diets containing various amounts of the compound of formula I in the galacetose containing diet. The concentration of galactose in the diet of the treated groups was the same as that for the untreated galactosemic group.
# (b) After four days, the animals were killed by decapitation. The eyeballs were removed and punctured with a razor blade; the freed lenses were rolled gently on filter paper and weighed. The sciatic nerves were dissected as completely as possible and weighed. Both tissues were frozen and kept up to two weeks before being analyzed for dulcitol.
# (c) The tissues were homoginized in 5% (w/v) trichloroacetic acid and the polyol determination on the extracts were performed by a modification of the procedure of M. Kraml and L. Cosyns, Clin. Biochem., 2, 373 (1969). Only two minor reagent changes were made: (a) The rinsing mixture was an aqueous 5% (w/v) trichloroacetic acid solution and (b) the stock solution was prepared by dissolving 25 mg of dulcitol in 100 ml of an aqueous trichloroacetic acid solution. [N.B.: For each experiment the average value found in the tissued from rats fed the glucose diet was subtracted from the individual values found in the corresponding rat tissue to obtain the amount of polyol accumulated].
# The results obtained are exemplified in Table 2, wherein the values under L and N respectively, represent the percentage decreases of dulcitol accumulation in the tissues of the lens, and sciatic nerve for treated rats as compared to controls.
# [2] = target: T1, lens aldose reductase (Bos taurus, UniProt P16116); test: in vitro aldose reductase inhibition (modified Hayman and Kinoshita procedure); type: biochemical; details: enzyme from bovine lens, read-out: % Inhibition at Different Molar Concentrations (in vitro); for inhibition at 10 µM: 10^-5 molar; for inhibition at 1 µM: 10^-6 molar; for inhibition at 0.1 µM: 10^-7 molar
# T1 construct: the preparation of the enzyme from bovine lens; from tissue; host or cells: bovine lens
# Source text: In the present case, the procedure of Hayman and Kinoshita is modified in that the final chromatography step is omitted in the preparation of the enzyme from bovine lens.
# Table 1 gives the results of the compounds of formula I or an addition salt thereof when evaluated in the above in vitro test.
# [3] = 131 mg/kg/day in galactose diet, 4 days, vs controls
SMILES,"percentage decrease of dulcitol accumulation in lens (L) [1, 3]",inhibition at 10 µM [2],inhibition at 1 µM [2],inhibition at 0.1 µM [2],"percentage decrease of dulcitol accumulation in lens (L) ([1]; 141 mg/kg/day in galactose diet, 4 days, vs controls)","percentage decrease of dulcitol accumulation in lens (L) ([1]; 165 mg/kg/day in galactose diet, 4 days, vs controls)","percentage decrease of dulcitol accumulation in lens (L) ([1]; 128 mg/kg/day in galactose diet, 4 days, vs controls)","percentage decrease of dulcitol accumulation in lens (L) ([1]; 134 mg/kg/day in galactose diet, 4 days, vs controls)","percentage decrease of dulcitol accumulation in lens (L) ([1]; 150 mg/kg/day in galactose diet, 4 days, vs controls)","percentage decrease of dulcitol accumulation in lens (L) ([1]; 144 mg/kg, 96 h)"
O=C(O)CN1C(=S)c2cccc3c(Br)ccc1c23 [6-Bromo-2-thioxo-benz[cd]indole-1(2H)-acetic Acid],27%,95%,91%,79%,–,–,–,–,–,–
O=C(O)CN1C(=S)c2cccc3c(I)ccc1c23 [6-iodo-2-thioxo-benz[cd]indole-1(2H)-acetic acid],–,93%,91%,81%,32%,–,–,–,–,–
O=C(O)CN1C(=S)c2cccc3cccc1c23 [2-thioxo-benz[cd]indole-1(2H)-acetic acid],–,93%,87%,61%,–,18%,–,–,–,–
O=C(O)CN1C(=S)c2cccc3c(F)ccc1c23 [6-fluoro-2-thioxo-benz[cd]indole-1(2H)-acetic acid],–,94%,88%,56%,–,–,–,–,–,–
"O=C(O)CN1C(=S)c2cccc3c(Cl)cc(Cl)c1c23 [6,8-dichloro-2-thioxo-benz[cd]indole-1(2H)-acetic acid]",–,94%,76%,30%,–,–,18%,–,–,–
O=C(O)CN1C(=S)c2cccc3c(Cl)ccc1c23 [6-chloro-2-thioxo-benz[cd]indole-1(2H)-acetic acid],–,96%,91%,66%,–,–,–,27%,–,–
"NCCOC(=O)CN1C(=S)c2cccc3cccc1c23 [2-Thioxo-benz[cd]indole-1(2H)-acetic Acid, 2-Amino-ethyl Ester]",–,83%,29%,–,–,–,–,–,–,–
"O=C(O)CN1C(=S)c2cccc3c(Br)cc(Br)c1c23 [6,8-dibromo-2-thioxo-benz[cd]indole-1(2H)-acetic acid]",9%,89%,56%,13%,–,–,–,–,–,–
"CCOC(=O)CN1C(=S)c2cccc3cccc1c23 [2-thioxo-benz[cd]indole-1(2H)-acetic acid, ethyl ester]",–,66%,11%,–,–,–,–,–,11%,–
"CN(C)CCCOC(=O)CN1C(=S)c2cccc3c(Cl)ccc1c23 [6-Chloro-2-thioxo-benz[cd]indole-1(2H)-acetic Acid, 3-Dimethylamino-1propylEster]",–,91%,70%,14%,–,–,–,–,–,28%
